Measured values published in patent US4762848A, “1,3-thiazoles and their use as immunomodulators” (Hoechst Aktiengesellschaft, priority 1985, dated 1988).

Columns and labels:
[1] = system: cellular immune response (DTH reaction) to sheep erythrocytes; assay: Delayed type hypersensitivity (DTH) foot swelling reaction to sheep erythrocytes; assay type: in vivo, female NMRI mice; conditions: mice, i.p. and p.o.
Method: Effect On The Cellular Immunological Reaction, of the Delayed Type, to Sheep Erythrocytes (Delayed Type Hypersensitivity, DTH)
Either 10^6 or 10^9 red blood cells from sheep were administered intravenously to each animal in groups of 5 female NMRI mice weighing 18-20 g. Sheep erythrocytes are regarded in immunology as a standard test substance (antigen) for the induction of cellular and humoral immune reactions. In particular, this test provides information about the functioning of the T-cell-dependent component (T-helper cells) of the immune system. The test substance obtained as in exemplary embodiment 7 ([2-(3-carboxy-1-propylthio)-4 -methyl-1,3-thiazol-5-yl]acetic acid) was administered intraperitoneally and perorally, respectively, in the concentrations 10-100 mg/kg in physiological saline solution on days -3, -2, -1 and 0.After 5 days, each animal received 2×10^8 sheep erythrocytes injected into the underside of the foot and, 24 hours later, the swelling of the foot was measured. The foot swelling is induced by a skin reaction of the delayed type (delayed type hypersensitivity, DTH) and is, as is known to the expert, a measure of the cellular immune response (Collins, F. M. and Mackaness, G. B., J. Immunol. 101, 830-845, 1968). […]

[2] = system: macrophages; assay: Stimulation of macrophage activity (exocytosis / lysosomal enzyme activity), relative to the compound from Example 7; assay type: in vivo, NMRI mice; conditions: 100 mg/kg, 1 × i.p. day 0; relative to Example 7 = 100%
Method: (§1) This entailed investigation of the effect of the test substance obtained as in exemplary embodiment 7 on the stimulation of peritoneal macrophages in 6-8 week old NMRI mice. Female mice received the test substance in parenteral or oral doses of 25 mg/kg, 50 mg/kg, 100 mg/kg and 200 mg/kg. Buffered saline solution was administered to a control group. The mice were sacrificed three days after the injections, and the peritoneal macrophages of the animals were examined for their state of activation. The secretion of the lysosomal enzymes (β-galactosidase, β-glucuronidase and N-acetyl-β-D-glucosaminidase) was determined as one measure of macrophage activation. […] The level of oxidative metabolism in macrophages is taken as another measure of their state of activation. This activity is measured with the assistance of a biolumate by determination of the chemiluminescence.
(§2) For this purpose, either 3×10^6 macrophages were cultured with 1 ml of TC 199 culture medium in Petri dishes of diameter 30 mm or 10^6 macrophages were cultured with 100 μl of medium in round-bottomed polyethylene tubes (for determination of the chemiluminescence), with 5% CO2 and at 37° C.
(§3) After incubation for one hour, the cultures were washed to remove floating cells. The chemiluminescence (tube culture) was then determined directly, whereas the Petri dishes were incubated for a further 24 hours at 37° C. and then the enzyme and pinocytosis activities in the cultures were determined.
NMRI mice were treated with the compounds according to the invention as described in experiment 2.
The macrophage function (chemiluminescence and enzyme activity) was checked as a test to determine the immunostimulation.
It can be seen from the table that in comparison with macrophages from untreated animals, the chemiluminescence reaction of these cells was also greatly stimulated by all the test substances, and their content of lysosomal enzymes was markedly raised.

[3] = system: mouse peritoneal macrophages; assay: Release of lysosomal hydrolase enzymes from peritoneal macrophages of treated mice; assay type: in vivo, NMRI mice; conditions: for N-Ac-Glu % release: N-acetyl-β-D-glucosaminidase; for β-Gal % release: β-galactosidase; for β-Glu % release: β-glucuronidase
Method: as §1, §2, §3
It can be seen from Table 3 that macrophages from control mice release only small amounts of lysosomal enzymes (β-glucuronidase, β-galactosidase and N-acetyl-β-D-glucosaminidase) into the culture supernatant. […] It is evident that the test substance has a stimulant action on macrophage activity and contributes to an increase in enzyme release.

What does the source list for `Cc1nc(SCCCC(=O)O)sc1CC(=O)O` [Example 7, [2-(3-Carboxy-1-propylthio)-4-methyl-1,3-thiazol-5-yl]acetic acid]?
dose for optimum stimulation of the cellular immune response [1]: 20 to 40 mg/kg; Macrophage activity: Exocytosis, relative activity [2]: 100%; N-Ac-Glu % release ([3]; 25 mg/kg, 1 × i.p.): 17.2%; N-Ac-Glu % release ([3]; 25 mg/kg, 1 × p.o.): 15.4%; N-Ac-Glu % release ([3]; 50 mg/kg, 1 × i.p.): 26.0%; N-Ac-Glu % release ([3]; 50 mg/kg, 1 × p.o.): 22.8%; N-Ac-Glu % release ([3]; 100 mg/kg, 1 × i.p.): 40.8%; N-Ac-Glu % release ([3]; 100 mg/kg, 1 × p.o.): 37.3%; N-Ac-Glu % release ([3]; 200 mg/kg, 1 × i.p.): 51.5%; N-Ac-Glu % release ([3]; 200 mg/kg, 1 × p.o.): 45.2%; β-Gal % release ([3]; 25 mg/kg, 1 × i.p.): 24.1%; β-Gal % release ([3]; 25 mg/kg, 1 × p.o.): 20.4%; β-Gal % release ([3]; 50 mg/kg, 1 × i.p.): 33.5%; β-Gal % release ([3]; 50 mg/kg, 1 × p.o.): 26.9%; β-Gal % release ([3]; 100 mg/kg, 1 × i.p.): 52.9%; β-Gal % release ([3]; 100 mg/kg, 1 × p.o.): 43.6%; β-Gal % release ([3]; 200 mg/kg, 1 × i.p.): 65.4%; β-Gal % release ([3]; 200 mg/kg, 1 × p.o.): 54.8%; β-Glu % release ([3]; 25 mg/kg, 1 × i.p.): 20.0%; β-Glu % release ([3]; 25 mg/kg, 1 × p.o.): 17.5%; β-Glu % release ([3]; 50 mg/kg, 1 × i.p.): 30.9%; β-Glu % release ([3]; 50 mg/kg, 1 × p.o.): 25.1%; β-Glu % release ([3]; 100 mg/kg, 1 × i.p.): 42.8%; β-Glu % release ([3]; 100 mg/kg, 1 × p.o.): 38.2%; β-Glu % release ([3]; 200 mg/kg, 1 × i.p.): 58.2%; β-Glu % release ([3]; 200 mg/kg, 1 × p.o.): 49.8%
